Converted amounts (≈) assume the structure as drawn.

This assay has as its system S. aureus. The assay can be described thus: Minimum inhibitory concentrations (MICs) for S. aureus of exemplary compounds (Table 2). The note with it: Staphylococcus aureus, minimum inhibitory concentrations for S. aureus; read-out: MICs. It is filed as cell-based. The essentials: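 Growth of S. aureus in media with or without compound, by broth microdilution in microtiter trays following NCCLS M7-A5 guidelines. Values are MICs in μg/mL.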
For `CC(=O)NC[C@H]1CN(c2ccc(-c3ccc(Cn4cnc5c(NCCO)ncnc54)cc3)c(F)c2)C(=O)O1` [Compound 1099, N-(3-{2-Fluoro-4′-[6-(2-hydroxy-ethylamino)-purin-9-ylmethyl]-biphenyl-4-yl}-2-oxo-oxazolidin-5-(S)-ylmethyl)-acetamide], the MIC is 2 µg/mL (≈ 3.85 µM).

`CC(=O)NC[C@H]1CN(c2ccc(-c3ccc(Cn4cnc5c(Cl)ncnc54)cc3)c(F)c2)C(=O)O1` [Compound 1100, N-{3-[4′-(6-Chloro-purin-9-ylmethyl)-2-fluoro-biphenyl-4-yl]-2-oxo-oxazolidin-5-(S)-ylmethyl}-acetamide]: the MIC worked out at 1 µg/mL (≈ 2.02 µM).

In the case of `CC(=O)NC[C@H]1CN(c2ccc(-c3ccc(CN4CCOC4=O)cc3)c(F)c2)C(=O)O1` [Compound 1101, N-{3-[2-Fluoro-4′-(2-oxo-oxazolidin-3-ylmethyl)-biphenyl-4-yl]-2-oxo-oxazolidin-5-(S)-ylmethyl}-acetamide], the MIC came out at 0.25 µg/mL (≈ 0.585 µM).

For the compound `CC(=O)NC[C@H]1CN(c2ccc(-c3ccc(Cn4cnc5c(NCCF)ncnc54)cc3)c(F)c2)C(=O)O1` [Compound 1102, N-(3-{2-Fluoro-4′-[6-(2-fluoro-ethylamino)-purin-9-ylmethyl]-biphenyl-4-yl}-2-oxo-oxazolidin-5-(S)-ylmethyl)-acetamide], the MIC was found to be 1 µg/mL (≈ 1.92 µM).

For `CC(=O)NC[C@H]1CN(c2ccc(-c3ccc(Cn4cnc5c(NCC(F)F)ncnc54)cc3)c(F)c2)C(=O)O1` [Compound 1103, N-(3-{4′-[6-(2,2-Difluoro-ethylamino)-purin-9-ylmethyl]-2-fluoro-biphenyl-4-yl}-2-oxo-oxazolidin-5-(S)-ylmethyl)-acetamide], the MIC turned out to be 1 µg/mL (≈ 1.85 µM).

Turning to `CC(=O)NC[C@H]1CN(c2ccc(-c3ccc(Cn4cnc5c(NCC(F)(F)F)ncnc54)cc3)c(F)c2)C(=O)O1` [Compound 1104, N-(3-{2-Fluoro-4′-[6-(2,2,2-trifluoro-ethylamino)-purin-9-ylmethyl]-biphenyl-4-yl}-2-oxo-oxazolidin-5-(S)-ylmethyl)-acetamide], the MIC was found to be 1 µg/mL (≈ 1.79 µM).

For the compound `CC(=O)NC[C@H]1CN(c2ccc(-c3ccc(Cn4cnc5c(N(C)C)ncnc54)cc3)c(F)c2)C(=O)O1` [Compound 1105, N-{3-[4′-(6-Dimethylamino-purin-9-ylmethyl)-2-fluoro-biphenyl-4-yl]-2-oxo-oxazolidin-5-(S)-ylmethyl}-acetamide], the MIC came out at 1 µg/mL (≈ 1.99 µM).

For the compound `CNc1ncnc2c1ncn2Cc1ccc(-c2ccc(N3C[C@H](CNC(C)=O)OC3=O)cc2F)cc1` [Compound 1106, N-{3-[2-Fluoro-4′-(6-methylamino-purin-9-ylmethyl)-biphenyl-4-yl]-2-oxo-oxazolidin-5-(S)-ylmethyl}-acetamide], the MIC was found to be 1 µg/mL (≈ 2.04 µM).

On to `CC(=O)NC[C@H]1CN(c2ccc(-c3ccc(Cn4cnc5c(NCCCO)ncnc54)cc3)c(F)c2)C(=O)O1` [Compound 1107, N-(3-{2-Fluoro-4′-[6-(3-hydroxy-propylamino)-purin-9-ylmethyl]-biphenyl-4-yl}-2-oxo-oxazolidin-5-(S)-ylmethyl)-acetamide], for which the MIC amounted to 2 µg/mL (≈ 3.75 µM).

Regarding `CSCCNc1ncnc2c1ncn2Cc1ccc(-c2ccc(N3C[C@H](CNC(C)=O)OC3=O)cc2F)cc1` [Compound 1108], the MIC is 2 µg/mL (≈ 3.64 µM).

As for `CC(=O)NC[C@H]1CN(c2ccc(-c3ccc(Cn4cnc5c(NCCCCO)ncnc54)cc3)c(F)c2)C(=O)O1` [Compound 1109, N-(3-{2-Fluoro-4′-[6-(4-hydroxy-butylamino)-purin-9-ylmethyl]-biphenyl-4-yl}-2-oxo-oxazolidin-5-(S)-ylmethyl)-acetamide], the MIC amounted to 2 µg/mL (≈ 3.65 µM).

With `CC(=O)NC[C@H]1CN(c2ccc(-c3ccc(Cn4cnc5c(N)ncnc54)cc3)c(F)c2)C(=O)O1` [Compound 1110, N-{3-[4′-(6-Amino-purin-9-ylmethyl)-2-fluoro-biphenyl-4-yl]-2-oxo-oxazolidin-5-(S)-ylmethyl}-acetamide], the MIC came to 1 µg/mL (≈ 2.1 µM).

Take `CC(=O)NC[C@H]1CN(c2ccc(-c3ccc(Cn4cnc5c(=O)[nH]cnc54)cc3)c(F)c2)C(=O)O1` [Compound 1111, N-{3-[2-Fluoro-4′-(6-oxo-1,6-dihydro-purin-9-ylmethyl)-biphenyl-4-yl]-2-oxo-oxazolidin-5-(S)-ylmethyl}-acetamide]: the MIC worked out at 2 µg/mL (≈ 4.2 µM).

On to `CC(=O)NC[C@H]1CN(c2ccc(-c3ccc(CN4CCCO4)cc3)c(F)c2)C(=O)O1` [Compound 1112, N-[3-(2-Fluoro-4′-isoxazolidin-2-ylmethyl-biphenyl-4-yl)-2-oxo-oxazolidin-5-(S)-ylmethyl]-acetamide], for which the MIC is 1 µg/mL (≈ 2.42 µM).

As to `CC(=O)NC[C@H]1CN(c2ccc(-c3ccc(Cn4ccnc4N)cc3)c(F)c2)C(=O)O1` [Compound 1113, N-{3-[4′-(2-Amino-imidazol-1-ylmethyl)-2-fluoro-biphenyl-4-yl]-2-oxo-oxazolidin-5-(S)-ylmethyl}-acetamide], the MIC was 2 µg/mL (≈ 4.72 µM).

As to `CC(=O)NC[C@H]1CN(c2ccc(-c3ccc(CNc4nc(CN)ns4)cc3)c(F)c2)C(=O)O1` [Compound 2012, N-(3-{4′-[(3-Aminomethyl-[1,2,4]thiadiazol-5-ylamino)-methyl]-2-fluoro-biphenyl-4-yl}-2-oxo-oxazolidin-5-(S)-ylmethyl)-acetamide], the MIC is 1 µg/mL (≈ 2.13 µM).

Take `CC(=O)NC[C@H]1CN(c2ccc(-c3ccc(CNc4nc(CNC(=O)[C@H](C)N)ns4)cc3)c(F)c2)C(=O)O1` [Compound 2013, N-[5-({4′[5-(S)-(Acetylamino-methyl)-2-oxo-oxazolidin-3-yl]-2′-fluoro-biphenyl-4-ylmethyl}-amino)-[1,2,4]thiadiazol-3-ylmethyl]-2-(S)-amino-propionamide]: the MIC was found to be 1 µg/mL (≈ 1.85 µM).

On to `CC(=O)NC[C@H]1CN(c2ccc(-c3ccc(CNc4nc(CNC(=O)[C@@H](N)CCCCN)ns4)cc3)c(F)c2)C(=O)O1` [Compound 2014, 2,6-Diamino-hexanoic acid [5-({4′-[5-(acetylamino-methyl)-2-oxo-oxazolidin-3-yl]-2′-fluoro-biphenyl-4-ylmethyl}-amino)-[1,2,4]thiadiazol-3-ylmethyl]-amide], for which the MIC was 2 µg/mL (≈ 3.34 µM).

Consider `CC(=O)NC[C@H]1CN(c2ccc(-c3ccc(CSc4nnnn4C)cc3)c(F)c2)C(=O)O1` [Compound 2015, N-{3-[2-Fluoro-4′-(1-methyl-1H-tetrazol-5-ylsulfanylmethyl)-biphenyl-4-yl]-2-oxo-oxazolidin-5-(S)-ylmethyl}-acetamide], for which the MIC is 0.25 µg/mL (≈ 0.548 µM).

Consider `CC(=O)NC[C@H]1CN(c2ccc(-c3ccc(CSc4cnn[nH]4)cc3)c(F)c2)C(=O)O1` [Compound 2016, N-{3-[2-Fluoro-4′-(3H-[1,2,3]triazol-4-ylsulfanylmethyl)-biphenyl-4-yl]-2-oxo-oxazolidin-5-(S)-ylmethyl}-acetamide], for which the MIC is 0.25 µg/mL (≈ 0.566 µM).

For the compound `CC(=O)NC[C@H]1CN(c2ccc(-c3ccc(CSc4ccccn4)cc3)c(F)c2)C(=O)O1` [Compound 2018, N-{3-[2-Fluoro-4′-(pyridin-2-ylsulfanylmethyl)-biphenyl-4-yl]-2-oxo-oxazolidin-5-(S)-ylmethyl}-acetamide], the MIC is 0.25 µg/mL (≈ 0.554 µM).

As to `CC(=O)NC[C@H]1CN(c2ccc(-c3ccc(CSc4ccncc4)cc3)c(F)c2)C(=O)O1` [Compound 2019, N-{3-[2-Fluoro-4′-(pyridin-4-ylsulfanylmethyl)-biphenyl-4-yl]-2-oxo-oxazolidin-5-(S)-ylmethyl}-acetamide], the MIC turned out to be 1 µg/mL (≈ 2.21 µM).

In the case of `CC(=O)NC[C@H]1CN(c2ccc(-c3ccc(C[S+]([O-])c4nnnn4C)cc3)c(F)c2)C(=O)O1` (stereo partly drawn) [Compound 2020, N-{3-[2-Fluoro-4′-(1-methyl-1H-tetrazole-5-sulfinylmethyl)-biphenyl-4-yl]-2-oxo-oxazolidin-5-(S)-ylmethyl}-acetamide], the MIC was determined as 0.25 µg/mL (≈ 0.529 µM).

On to `CC(=O)NC[C@H]1CN(c2ccc(-c3ccc(C[S+]([O-])c4cnn[nH]4)cc3)c(F)c2)C(=O)O1` (stereo partly drawn) [Compound 2021, N-{3-[2-Fluoro-4′-(3H-[1,2,3]triazole-4-sulfinylmethyl)-biphenyl-4-yl]-2-oxo-oxazolidin-5-(S)-ylmethyl}-acetamide], for which the MIC was 2 µg/mL (≈ 4.37 µM).

`CC(=O)NC[C@H]1CN(c2ccc(-c3ccc(C[S+]([O-])c4ccncc4)cc3)c(F)c2)C(=O)O1` (stereo partly drawn) [Compound 2022, N-{3-[2-Fluoro-4′-(pyridine-4-sulfinylmethyl)-biphenyl-4-yl]-2-oxo-oxazolidin-5-(S)-ylmethyl}-acetamide]: the MIC was found to be 2 µg/mL (≈ 4.28 µM).

For the compound `CC(=O)NC[C@H]1CN(c2ccc(-c3ccc(C[S+]([O-])c4ccccn4)cc3)c(F)c2)C(=O)O1` (stereo partly drawn) [Compound 2023, N-{3-[2-Fluoro-4′-(pyridine-2-sulfinylmethyl)-biphenyl-4-yl]-2-oxo-oxazolidin-5-(S)-ylmethyl}-acetamide], the MIC was 1 µg/mL (≈ 2.14 µM).

For `CC(=O)NC[C@H]1CN(c2ccc(-c3ccc(CS(=O)(=O)c4nnnn4C)cc3)c(F)c2)C(=O)O1` [Compound 2024, N-{3-[2-Fluoro-4′-(1-methyl-1H-tetrazole-5-sulfonylmethyl)-biphenyl-4-yl]-2-oxo-oxazolidin-5-(S)-ylmethyl}-acetamide], the MIC turned out to be 0.25 µg/mL (≈ 0.512 µM).

As to `CC(=O)NC[C@H]1CN(c2ccc(-c3ccc(CS(=O)(=O)c4cnn[nH]4)cc3)c(F)c2)C(=O)O1` [Compound 2025, N-{3-[2-Fluoro-4′-(3H-[1,2,3]triazole-4-sulfonylmethyl)-biphenyl-4-yl]-2-oxo-oxazolidin-5-(S)-ylmethyl}-acetamide], the MIC was found to be 8 µg/mL (≈ 16.9 µM).

With `CC(=O)NC[C@H]1CN(c2ccc(-c3ccc(CCSc4cnn[nH]4)cc3)c(F)c2)C(=O)O1` [Compound 2026, N-(3-{2-Fluoro-4′-[2-(3H-[1,2,3]triazol-4-ylsulfanyl)-ethyl]-biphenyl-4-yl}-2-oxo-oxazolidin-5-(S)-ylmethyl)-acetamide], the MIC is 0.25 µg/mL (≈ 0.549 µM).

In the case of `CC(=O)NC[C@H]1CN(c2ccc(-c3ccc(CSc4nnnn4CCN(C)C)cc3)c(F)c2)C(=O)O1` [Compound 2027, N-(3-{4′-[1-(2-Dimethylamino-ethyl)-1H-tetrazol-5-ylsulfanylmethyl]-2-fluoro-biphenyl-4-yl}-2-oxo-oxazolidin-5-(S)-ylmethyl)-acetamide], the MIC is 1 µg/mL (≈ 1.95 µM).
